Patent publication US10889569B2, “Condensed ring group azacyclobutyl triazole derivative, preparation method therefor and use thereof in medicine” (Jiangsu Hengrui Medicine Co., Ltd., priority 2016, dated 2021)

Experiments:
human V1bR = human V1bR (Homo sapiens, UniProt P47901); assay: Inhibition activity on human V1bR (Fluo-4 calcium assay, HEK293/human V1bR pool cells); format: cell-based; conditions: vasopressin 3 nM
Description: The inhibition effect of the compounds of the present invention on the activity of human V1bR protein expressed in HEK293/human V1bR cells was determined by the following experimental method:
The pcDNA3.1-V1bR plasmid was transferred into HEK293 cells with the Lipofectamine® 3000 transfection reagent; G418 was added on the next day, and the HEK293/human V1bR pool cell lines were obtained.
(§1) HEK293/human V1bR pool cells were inoculated in a 96-well plate with an inoculation density of 25,000 cells/well one day in advance. On the next day, a loading buffer containing Fluo-4 dye was formulated using the reagents in the Fluo-4 NW calcium assay kit, and the culture medium was then removed; 100 μl of the loading buffer containing Fluo-4 dye were added to each well, and the plate was incubated at 37° C. for 30 minutes. After that, the plate was moved to room temperature and equilibrated for 10 minutes. The compounds were formulated into 10^6, 10^5, 10^4, 10^3, 10^2 and 10^1 nM. 1 μl of the compounds in each concentration was added to each well, and the plate was incubated at room temperature for 10 minutes. 50 μl of vasopressin polypeptide (3 nM) were automatically added by the machine, and the values were immediately detected at 494/516 nM by the flexstation 3 microplate reader. IC50 values of the compounds were calculated by Graphpad prism software using fluorescence signals corresponding to different concentrations.
The inhibition activity of the compounds of the present invention on human V1bR was determined by the above test, and the obtained IC50 values are shown in Table 3.

human V1aR = human V1aR (Homo sapiens (Human), UniProt P37288); assay: Inhibition activity on human V1aR (Fluo-4 calcium assay, HEK293/human V1aR stably transfected cells); format: cell-based; conditions: vasopressin 3 nM
Description: The inhibition effect of the compounds of the present invention on the activity of human V1 aR protein expressed in HEK293/human V1aR stably transfected cells was determined by the following experimental method:
The pcDNA3.1-V1aR plasmid was transferred into HEK293 cells with the Lipofectamine® 3000 transfection reagent; G418 was added on the next day to screen, and monoclonal cell lines were selected.
as §1, with “V1aR stably transfected” for “V1bR pool”, “at” for “into”
The inhibition activity of the compounds of the present invention on human V1aR was determined by the above test, and the obtained IC50 values are shown in Table 2.

human V2R = human V2R (Homo sapiens (Human), UniProt P30518); assay: Inhibition activity on human V2R (cAMP HTRF assay, HEK293/human V2R pool cells); format: cell-based; conditions: vasopressin
Description: The inhibition effect of the compounds of the present invention on the activity of human V2R protein expressed in HEK293/human V2R cells was determined by the following experimental method:
The pcDNA3.1-V2R plasmid was transferred into HEK293 cells with the Lipofectamine® 3000 transfection reagent; G418 was added on the next day, and the HEK293/human V2R pool cell lines were obtained.
HEK293/human V2R pool cells were dissociated with the cell dissociation solution (enzyme-free), thereby dissociating the cells from the cell culture dish into individual cells. Then the cell solution was blown well, and centrifuged to remove the supernatant. The cells were resuspended in the test buffer 1 (1×HBSS+20 mM HEPES+0.1% BSA) and counted. The cell density was adjusted to 1250 cells/5 μl, i.e., 2.5*10^5/ml.
The compounds were formulated into a series of concentrations of 20 mM, 6.67 mM, 2.22 mM, 0.74 mM, 0.25 mM, 0.08 mM, 27.4 μM, 9.14 μM, 3.05 μM, 1.02 μM, 0.34 μM and 0 μM (DMSO) with pure DMSO. The compounds were then diluted into a 4-fold working concentration solution with the test buffer 2 (test buffer 1+1 mM IBMX).
Agonist: 460 μM vasopressin was used as the mother liquor, which was formulated at 2 μM with DMSO, and then diluted to 0.5 nM with the test buffer 2.
Standards: The first point was 20 μl of a stock solution (2848 nM), which was diluted successively to a total of eleven concentrations in a 4-fold concentration gradient with the test buffer 1 from the second point.
1. The well-mixed cells were added to a 384-well plate (5 μl/well) without changing the tip.
2. The test compounds and positive compound formulated were added (2.5 μl/well), and the tips were changed.
3. The plate was centrifuged at 1000 rpm for 1 min, shaken for 30 sec to mix well, and incubated at room temperature for 30 min.
4. The standard curve wells were added with the test buffer 2 (5 μl/well).
5. The formulated agonist was added (2.5 μl/well), and the tips were changed; the plate was centrifuged at 1000 rpm for 1 min, shaken for 30 sec to mix well, and incubated at room temperature for 30 min.
6. cAMP-d2 (a component in the cAMP dynamic 2 kit) and Anti-cAMP-Eu-Cryptate (a component in the cAMP dynamic 2 kit) were formulated in the dark, which were then mixed well with cAMP lysate (a component in the cAMP dynamic 2 kit) in a ratio of 1:4. Each well was added with the formulated cAMP-d2 solution (5 μl/well), followed by addition of Anti-cAMP-Eu-Cryptate (5 μl/well). The plate was shaken for 30 sec to mix well, and incubated in the dark at room temperature for 1 h.
The HTRF Signals were Read by the PheraStar Multi-Function Microplate Reader.
The data in this test was processed using the data processing software Graphpad Prism.
The inhibition activity of the compounds of the present invention on human V2R was determined by the above test, and the IC50 values obtained are shown in Table 4.

human OTR = human OTR (Homo sapiens, UniProt P30559); assay: Inhibition activity on human OTR (Fluo-4 calcium assay, HEK293/human OTR stably transfected cells); format: cell-based; conditions: oxytocin 3 nM
Description: The inhibition effect of the compounds of the present invention on the activity of human OTR protein expressed in HEK293/human OTR stably transfected cells was determined by the following experimental method:
The pcDNA3.1-hOTR plasmid was transferred into HEK293 cells with the Lipofectamine® 3000 transfection reagent; G418 was added on the next day to screen, and monoclonal cell lines were selected.
as §1, with “OTR stably transfected” for “V1bR pool”, “at” for “into”, “oxytocin” for “vasopressin”
The inhibition activity of the compounds of the present invention on human OTR was determined by the above test, and the obtained IC50 values are shown in Table 1.

[1] = Pharmacokinetics assay in rats after intragastrical administration; format: in vivo, SD rats; conditions: Sprague-Dawley, rat, plasma, po, 30 mg/kg, intragastric, male rats
Description: Male SD rats were used as test animals. The drug concentration in plasma at different time points was determined by LC/MS/MS method after intragastrical administration of the compounds of Examples 2, 17, 34, 37, 38, 39 and 43 to rats. The pharmacokinetic behavior of the compounds of the present invention was studied and evaluated in rats.
Twenty-one healthy adult male Sprague-Dawley (SD) rats were purchased from Shanghai Jiesijie Laboratory Animal Co., LTD, with Certificate No.: SCXK (Shanghai) 2013-0006, and equally divided into 7 groups (3 rats per group).
A certain amount of the test compound was weighed, and added with 2.5% by volume of DMSO and 97.5% by volume of 10% solutol HS-15 to formulate a […] colorless, clear and transparent solution.
After an overnight fast, SD rats were administered intragastrically the test compounds at an administration dosage of 30.0 mg/kg and an administration volume of 10.0 mL/kg.
The rats were intragastrically administered the compounds of Examples 2, 17, 34, 37, 38, 39 and 43. 0.2 mL of blood was taken from the orbital sinus before administration and at 0.5, 1.0, 2.0, 4.0, 6.0, 8.0, 11.0 and 24.0 hours after administration. The samples were stored in heparinized tubes, and centrifuged for 10 minutes at 4° C. at 3500 rpm to separate the plasma. The plasma samples were stored at −20° C. The rats were fed 2 hours after administration.
The content of the test compounds in the plasma of rats after intragastrical administration of the test compounds at different concentrations was determined: 50 μL of rat plasma at each time after administration was taken, added with 50 μL of the internal standard solution of camptothecin (100 ng/mL) and 150 μL of acetonitrile, vortex-mixed for 5 minutes, and centrifuged for 10 minutes (4000 rpm). 3 μL of the supernatant was taken from the plasma samples for LC/MS/MS analysis.

Chain of human V2R (P30518 whole entry): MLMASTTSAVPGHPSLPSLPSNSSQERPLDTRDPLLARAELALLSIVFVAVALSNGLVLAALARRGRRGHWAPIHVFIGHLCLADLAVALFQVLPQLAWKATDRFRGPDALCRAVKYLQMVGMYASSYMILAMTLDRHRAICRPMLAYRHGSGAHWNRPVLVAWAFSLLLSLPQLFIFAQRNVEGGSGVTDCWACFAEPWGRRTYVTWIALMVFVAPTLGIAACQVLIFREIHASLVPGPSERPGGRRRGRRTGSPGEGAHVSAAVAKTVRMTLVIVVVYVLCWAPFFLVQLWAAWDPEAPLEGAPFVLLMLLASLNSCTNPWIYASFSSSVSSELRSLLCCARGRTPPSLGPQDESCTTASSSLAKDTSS
Chain of human V1aR (P37288 whole entry): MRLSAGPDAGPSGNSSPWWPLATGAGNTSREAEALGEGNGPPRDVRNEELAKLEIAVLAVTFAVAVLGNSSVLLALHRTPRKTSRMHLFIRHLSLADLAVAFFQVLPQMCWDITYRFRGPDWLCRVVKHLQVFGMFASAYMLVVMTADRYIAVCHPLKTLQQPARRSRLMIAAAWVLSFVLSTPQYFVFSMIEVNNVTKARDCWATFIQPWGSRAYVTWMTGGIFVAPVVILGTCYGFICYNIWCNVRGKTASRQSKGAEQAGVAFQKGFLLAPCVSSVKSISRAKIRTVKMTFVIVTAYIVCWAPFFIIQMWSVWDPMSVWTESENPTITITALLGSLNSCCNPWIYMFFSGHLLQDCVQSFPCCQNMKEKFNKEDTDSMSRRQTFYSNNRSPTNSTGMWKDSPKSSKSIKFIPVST

Row | SMILES | IC50 (human V1bR) | IC50 (human V1aR) | IC50 (human V2R) | IC50 (human OTR) | Vd/F ([1]; read-out: Apparent distribution volume Vz/F) | AUC ([1]; read-out: Area under curve AUC) | CL/F ([1]; read-out: Clearance CLz/F) | half-life ([1]; read-out: Half-life T1/2 (converted)) | Cmax ([1]; read-out: Plasma concentration Cmax)
1 | COCc1nnc(N2CC(c3ccnc4cc(F)ccc34)C2)n1-c1ccc(OC)nc1 [Example 1, 7-Fluoro-4-(1-(5-(methoxymethyl)-4-(6-methoxypyridin-3-yl)-4H-1,2,4-triazol-3-yl)azetidin-3-yl)quinoline] | 448 µM | 18.1 µM | > 100 µM | – | – | – | – | – | –
2 | COCc1nnc(N2CC(c3csc4cc(F)ccc34)C2)n1-c1ccc(OC)nc1 [Example 9, 5-(3-(3-(6-Fluorobenzo[b]thiophen-3-yl)azetidin-1-yl)-5-(methoxymethyl)-4H-1,2,4-triazol-4-yl)-2-methoxypyridine] | 42.7 µM | 1.2 µM | 12.5 µM | 0.04 µM | – | – | – | – | –
3 | COCc1nnc(N2CC(c3coc4cc(F)ccc34)C2)n1-c1ccc(OC)nc1 [Example 11, 5-(3-(3-(6-Fluorobenzofuran-3-yl)azetidin-1-yl)-5-(methoxymethyl)-4H-1,2,4-triazol-4-yl)-2-methoxypyridine] | – | 2.3 µM | 25.7 µM | 0.221 µM | – | – | – | – | –
4 | COCc1nnc(N2CC(N3C(=O)COc4cc(F)ccc43)C2)n1-c1ccc(OC)nc1 [Example 18, 7-Fluoro-4-(1-(5-(methoxymethyl)-4-(6-methoxypyridin-3-yl)-4H-1,2,4-triazol-3-yl)azetidin-3-yl)-2H-benzo[b][1,4]oxazin-3(4H)-one] | 59.5 µM | 59.5 µM | 59.4 µM | – | – | – | – | – | –
5 | COCc1nnc(N2CC(N3CCc4cc(F)ccc43)C2)n1-c1ccc(OC)nc1 [Example 23, 5-Fluoro-1-(1-(5-(methoxymethyl)-4-(6-methoxypyridin-3-yl)-4H-1,2,4-triazol-3-yl)azetidin-3-yl)indoline] | – | – | 52 µM | – | – | – | – | – | –
6 | CCOCc1nnc(N2CC(N3CCCc4cc(F)ccc43)C2)n1-c1ccc(OC)nc1 [Example 26, 1-(1-(5-(Ethoxymethyl)-4-(6-methoxypyridin-3-yl)-4H-1,2,4-triazol-3-yl)azetidin-3-yl)-6-fluoro-1,2,3,4-tetrahydroquinoline] | 61 µM | – | 1.4 µM | 0.007 µM | – | – | – | – | –
7 | CCOCc1nnc(N2CC(N3CCCc4cc(F)ccc43)C2)n1-c1ccc2c(c1)OCO2 [Example 27, 1-(1-(4-(Benzo[d][1,3]dioxolan-5-yl)-5-(ethoxymethyl)-4H-1,2,4-triazol-3-yl)azetidin-3-yl)-6-fluoro-1,2,3,4-tetrahydroquinoline] | 13.9 µM | – | 9.1 µM | 0.008 µM | – | – | – | – | –
8 | COc1ccc(-n2c(C)nnc2N2CC(N3CCOc4cc(F)ccc43)C2)cn1 [Example 32, 7-Fluoro-4-(1-(4-(6-methoxypyridin-3-yl)-5-methyl-4H-1,2,4-triazol-3-yl)azetidin-3-yl)-3,4-dihydro-2H-benzo[b][1,4]oxazine] | 77.2 µM | 23 µM | > 100 µM | – | – | – | – | – | –
9 | COc1ccc(-n2c(N3CC(N4CCOc5cc(F)ccc54)C3)nnc2C(F)(F)F)cn1 [Example 43, 7-Fluoro-4-(1-(4-(6-methoxypyridin-3-yl)-5-(trifluoromethyl)-4H-1,2,4-triazol-3-yl)azetidin-3-yl)-3,4-dihydro-2H-benzo[b][1,4]oxazine] | – | 7.9 µM | – | 0.015 µM | 31.1 ± 19.3 L/kg | 5560 ± 2330 ng·h/mL | 3.81 ± 0.12 mL/min/kg | 3.31 ± 0.23 h | 1580 ± 601 ng/mL
